Results: article PMC10732398 (PLOS Pathogens, 2023)

Tested on: ⍺4β7 on primary CD8^+ T cells
Experiment: Flow cytometry: FAM-conjugated pCD4^165-178 binding to RA-treated primary CD8^+ T cells
Parameters: species or system human
Settings: FAM-Ttds-labelled peptide 1.25 μg/200,000 cells in 100 μl; presence or absence of Mn^++
Text: To further investigate the interaction between pCD4^165-178 and ⍺4β7 we attached a fluorescein dye to its amino terminus via a trioxatridecan-succinamic acid (Ttds) linker (Fig 5A). A scrambled pCD4^165-178 was employed as a control. […] FIB504 and vedolizumab inhibited binding by ~50%. This inhibition pattern resembles the one we obtained when inhibiting D1D2-Ig⍺tp with the same antagonists (Fig 3). We conclude that the CD4 D2 G β-strand binds directly to the headpiece region of ⍺4β7 in a cation dependent manner. Support for this conclusion, in the form of site directed mutagenesis within the D2 G β-strand is provided below.
Fig 5 Direct binding of pCD4^165-178 to ⍺4β7 on primary T cells. (A) Sequence of FAM -conjugated pCD4^165-178 and a scrambled derivative (FAM-scr pCD4^165-178). (B) Flow-cytometry derived histogram of pCD4^165-178 binding to RA -cultured CD8^+ T cells. pCD4^165-178 in the presence (green), or absence of Mn^++(black). Unstained cells are shown (grey). (C) Binding of pCD4^165-178 and its scrambled derivative to CD8^+ T cells in the presence of MnCl2 as in panel B, and in the presence of ⍺4 and ⍺4β7 antagonists, as indicated. Y-axis indicates % cells bound. Error bars represent standard error from 3 independent experiments.
Cells were stained with fluoresceine conjugated mAbs or recombinant proteins using standard procedures preceded by Fc receptor blocking with human IgG. Buffers used were 10 mM HEPES 150 mM NaCl (HBS Buffer) with 100 μM CaCl2. 1 mM MnCl2 was also included, unless otherwise specified. Buffer without divalent cations included 0.1 mM EDTA. Unlabeled mAb or protein inhibitors were preincubated with cells or proteins at a 5X molar excess for 15 min on ice. FAM labeled peptides were used at 1.25 μg/ 200,000 cells in a 100 μl volume. Data were acquired using a FACSCanto II (BD Biosciences) and analyzed with FlowJo software (BD Biosciences). Plotted MFI values represent absolute values.

QKKVEFKIDIVVLA [CD4 P42, linear CD4 D2 peptide, residues 165-178, G β-strand]
binding of FAM-labelled peptide to RA-treated CD8^+ T cells (in words): reacted strongly in the presence, but not in the absence of Mn^++
